{"source": "paper PMC4157036", "about": "“Does Long-Term Administration of a Beta-Blocker (Timolol) Induce Fibril-Based Cataract Formation In-vivo?” (Iranian Journal of Pharmaceutical Research : IJPR, 2014)", "molecular_target": "T1, bovine α-crystallin (Bos taurus, UniProt P02470+P02510)", "T1 construct": "gene CRYAA; native hetero-oligomer purified from bovine lenses (cows under two years), mixture of alphaA and alphaB subunits at about 3:1; no tag", "T1 sequence (P02470 1-173)": "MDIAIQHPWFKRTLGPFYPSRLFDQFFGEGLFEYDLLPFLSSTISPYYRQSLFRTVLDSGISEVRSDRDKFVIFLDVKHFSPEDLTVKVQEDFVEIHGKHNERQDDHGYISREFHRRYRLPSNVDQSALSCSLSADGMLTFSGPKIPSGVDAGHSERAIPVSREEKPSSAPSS", "T1 sequence (P02510 1-175)": "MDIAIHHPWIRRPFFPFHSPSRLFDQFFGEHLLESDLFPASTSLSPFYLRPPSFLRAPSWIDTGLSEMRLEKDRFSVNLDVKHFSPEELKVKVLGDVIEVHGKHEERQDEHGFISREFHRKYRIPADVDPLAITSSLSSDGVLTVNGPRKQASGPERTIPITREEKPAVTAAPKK", "assay": "turbidity at […] nm of GdnHCl-induced aggregation at […] °C", "conditions": "5 µM timolol, protein 0.6 mg/mL, 0.1 M phosphate pH 7.4, 60 °C, enhancer of aggregation, direct binding not measured", "data": [{"smiles": "CC(C)(C)NC[C@H](O)COc1nsnc1N1CCOCC1", "note": "[timolol]", "values": [{"measurement": "aggregation extent (fold)", "value": "~ 3 fold"}]}]}
